Key:
[1] = test system: blackgrass; test: Test B preemergence/postemergence greenhouse plant response rating 0 to 10; assay type: in vivo, Alopecurus myosuroides; conditions: for Plant response rating, Blackgrass: 0 to 10 scale
Method in brief: (§1)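 Planted seeds are treated preemergence with compound dissolved in a non-phytotoxic solvent, while postemergence applications go onto plants of two to eighteen cm. Plants stay in the greenhouse twelve to sixteen days and are then rated visually relative to controls.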

[2] = test system: crabgrass; test: as above; assay type: in vivo, Digitaria spp.; conditions: for Plant response rating, Crabgrass: 0 to 10 scale
Method in brief: as §1

[3] = test system: rape; test: as above; assay type: in vivo, Brassica napus; conditions: for Plant response rating, Rape: 0 to 10 scale; for Plant response rating (0 to 10 scale), Rape: Rate 100 g/ha
Method in brief: as §1

[4] = test system: giant foxtail; test: as above; assay type: in vivo, Setaria faberii; conditions: for Plant response rating, Giant foxtail: 0 to 10 scale; for Plant response rating (0 to 10 scale), Giant foxtail: Rate 100 g/ha
Method in brief: as §1

[5] = test system: barnyardgrass; test: as above; assay type: in vivo, Echinochloa crus-galli; conditions: for Plant response rating, Barnyardgrass: 0 to 10 scale
Method in brief: as §1

[6] = test system: purple nutsedge; test: as above; assay type: in vivo, Cyperus rotundus; conditions: for Plant response rating, Nutsedge: 0 to 10 scale; for Plant response rating (0 to 10 scale), Nutsedge: Rate 100 g/ha
Method in brief: as §1

[7] = test system: wild buckwheat; test: Test C preemergence/postemergence greenhouse plant response rating 0 to 100; assay type: in vivo, Polygonum convolvulus; conditions: POSTEMERGENCE
From the text: (§2) The compounds evaluated in this test were formulated in a non-phytoxic solvent and applied to the soil surface before plant seedlings emerged (preemergence application), to water that covered the soil surface (flood application), and to plants that were in the one-to-four leaf stage (postemergence application). A sandy loam soil was used for the preemergence and postemergence tests, while a silt loam soil was used in the flood test. Water depth was approximately 2.5 cm for the flood test and was maintained at this level for the duration of the test. Plant species in the preemergence and postemergence tests consisted of barley (Hordeum vulgare), bedstraw (Galium aparine), blackgrass (Alopecurus myosuroides), chickweed (Stellaria media), corn (Zea mays), cotton (Gossypium hirsutum), crabgrass (Digitaria sanguinalis), downy brome (Bromus tectorum), giant foxtail (Setaria faberii), lambsquarters (Chenopodium album), morningglory (Ipomoea hederacea), pigweed ([…]), rape (Brassica napus), ryegrass (Lolium multiflorum), sorghum (Sorghum bicolor), soybean (Glycine max), speedwell (Veronica persica), sugar beet (Beta vulgaris), velvetleaf (Abutilon theophrasti), wheat (Triticum aestivum), wild buckwheat (Polygonum convolvulus), and wild oat (Avena fatua). All plant species were planted one day before application of the compound for the preemergence portion-of this test. Plantings of these species were adjusted to produce plants of appropriate size for the post-emergence portion of the test. […] All plant species were grown using normal greenhouse practices. Visual evaluations of injury expressed on treated plants, when compared to untreated controls, were recorded approximately fourteen to twenty one days after application of the test compound. […] A dash (-) response means no test result.

[8] = test system: wheat; test: as above; assay type: in vivo, Triticum aestivum; conditions: POSTEMERGENCE
From the text: as §2

[9] = test system: corn; test: as above; assay type: in vivo, Zea mays; conditions: POSTEMERGENCE
From the text: as §2

[10] = test system: morningglory; test: as above; assay type: in vivo, Ipomoea hederacea; conditions: POSTEMERGENCE
From the text: as §2

[11] = test system: wild oat; test: as above; assay type: in vivo, Avena fatua; conditions: POSTEMERGENCE
From the text: as §2

Clc1ccc(-c2nc3n(c2Br)CCCC3)c(Cl)c1 [Compound 2]
5: Plant response rating, Rape ([3]; POSTEMERGENCE, Rate 50 g/ha) | Plant response rating, Giant foxtail ([4]; POSTEMERGENCE, Rate 200 g/ha) | Plant response rating, Barnyardgrass ([5]; POSTEMERGENCE, Rate 400 g/ha)
1: Plant response rating (0 to 10 scale), Blackgrass ([1]; POSTEMERGENCE, Rate 50 g/ha) | Plant response rating (0 to 10 scale), Blackgrass ([1]; POSTEMERGENCE, Rate 100 g/ha) | Plant response rating, Blackgrass ([1]; POSTEMERGENCE, Rate 200 g/ha)
9: Plant response rating, Rape ([3]; POSTEMERGENCE, Rate 200 g/ha) | Plant response rating, Rape ([3]; POSTEMERGENCE, Rate 400 g/ha)
2: Plant response rating, Blackgrass ([1]; POSTEMERGENCE, Rate 400 g/ha) | Plant response rating, Barnyardgrass ([5]; PREEMERGENCE, Rate 400 g/ha)
3: Plant response rating (0 to 10 scale), Crabgrass ([2]; POSTEMERGENCE, Rate 50 g/ha) | Plant response rating (0 to 10 scale), Crabgrass ([2]; POSTEMERGENCE, Rate 100 g/ha) | Plant response rating (0 to 10 scale), Rape ([3]; POSTEMERGENCE) | Plant response rating (0 to 10 scale), Barnyardgrass ([5]; POSTEMERGENCE, Rate 50 g/ha) | Plant response rating (0 to 10 scale), Barnyardgrass ([5]; POSTEMERGENCE, Rate 100 g/ha) | Plant response rating, Barnyardgrass ([5]; POSTEMERGENCE, Rate 200 g/ha)
0: Plant response rating, Blackgrass ([1]; PREEMERGENCE, Rate 50 g/ha) | Plant response rating (0 to 10 scale), Blackgrass ([1]; PREEMERGENCE, Rate 100 g/ha) | Plant response rating, Blackgrass ([1]; PREEMERGENCE, Rate 400 g/ha) | Plant response rating, Blackgrass ([1]; Rate 200 g/ha, PREEMERGENCE) | Plant response rating, Crabgrass ([2]; PREEMERGENCE, Rate 50 g/ha) | Plant response rating (0 to 10 scale), Crabgrass ([2]; PREEMERGENCE, Rate 100 g/ha) | Plant response rating, Crabgrass ([2]; Rate 200 g/ha, PREEMERGENCE) | Plant response rating, Rape ([3]; PREEMERGENCE, Rate 50 g/ha) | Plant response rating (0 to 10 scale), Rape ([3]; PREEMERGENCE) | Plant response rating, Rape ([3]; PREEMERGENCE, Rate 400 g/ha) | Plant response rating, Rape ([3]; Rate 200 g/ha, PREEMERGENCE) | Plant response rating, Giant foxtail ([4]; PREEMERGENCE, Rate 50 g/ha) | Plant response rating (0 to 10 scale), Giant foxtail ([4]; PREEMERGENCE) | Plant response rating, Giant foxtail ([4]; Rate 200 g/ha, PREEMERGENCE) | Plant response rating, Barnyardgrass ([5]; PREEMERGENCE, Rate 50 g/ha) | Plant response rating (0 to 10 scale), Barnyardgrass ([5]; PREEMERGENCE, Rate 100 g/ha) | Plant response rating, Barnyardgrass ([5]; Rate 200 g/ha, PREEMERGENCE) | Plant response rating, Nutsedge ([6]; POSTEMERGENCE, Rate 50 g/ha) | Plant response rating (0 to 10 scale), Nutsedge ([6]; POSTEMERGENCE) | Plant response rating, Nutsedge ([6]; POSTEMERGENCE, Rate 200 g/ha) | Plant response rating, Nutsedge ([6]; POSTEMERGENCE, Rate 400 g/ha) | Plant response rating, Nutsedge ([6]; PREEMERGENCE, Rate 50 g/ha) | Plant response rating (0 to 10 scale), Nutsedge ([6]; PREEMERGENCE) | Plant response rating, Nutsedge ([6]; PREEMERGENCE, Rate 400 g/ha) | Plant response rating, Nutsedge ([6]; Rate 200 g/ha, PREEMERGENCE)
7: Plant response rating, Crabgrass ([2]; POSTEMERGENCE, Rate 200 g/ha) | Plant response rating, Crabgrass ([2]; POSTEMERGENCE, Rate 400 g/ha) | Plant response rating, Giant foxtail ([4]; PREEMERGENCE, Rate 400 g/ha)
4: Plant response rating, Giant foxtail ([4]; POSTEMERGENCE, Rate 50 g/ha) | Plant response rating (0 to 10 scale), Giant foxtail ([4]; POSTEMERGENCE)
6: Plant response rating, Giant foxtail ([4]; POSTEMERGENCE, Rate 400 g/ha)

C#CCN1C(=O)COc2cc(F)c(-c3nn4c(c3Br)CCCC4)cc21 [Compound 56]
60: Plant response rating, Wheat ([8]; 62 g/ha, 0 to 100 scale) | Plant response rating (0 to 100), Wheat ([8]; Rate 16 g/ha) | Plant response rating, Wild oat ([11]; 62 g/ha, 0 to 100 scale)
50: Plant response rating (0 to 100), Wheat ([8]; Rate 4 g/ha) | Plant response rating, Corn ([9]; 62 g/ha, 0 to 100 scale) | Plant response rating (0 to 100), Morningglory ([10]; Rate 1 g/ha) | Plant response rating (0 to 100), Wild oat ([11]; Rate 16 g/ha)
0: Plant response rating, Crabgrass ([2]; PREEMERGENCE, Rate 10 g/ha) | Plant response rating, Giant foxtail ([4]; PREEMERGENCE, Rate 10 g/ha) | Plant response rating, Giant foxtail ([4]; PREEMERGENCE, Rate 50 g/ha) | Plant response rating, Barnyardgrass ([5]; PREEMERGENCE, Rate 10 g/ha) | Plant response rating, Barnyardgrass ([5]; PREEMERGENCE, Rate 50 g/ha)
6: Plant response rating, Blackgrass ([1]; POSTEMERGENCE, Rate 10 g/ha) | Plant response rating, Blackgrass ([1]; PREEMERGENCE, Rate 50 g/ha) | Plant response rating, Crabgrass ([2]; POSTEMERGENCE, Rate 50 g/ha) | Plant response rating, Giant foxtail ([4]; POSTEMERGENCE, Rate 50 g/ha)
4: Plant response rating, Crabgrass ([2]; POSTEMERGENCE, Rate 10 g/ha) | Plant response rating, Giant foxtail ([4]; POSTEMERGENCE, Rate 10 g/ha) | Plant response rating, Barnyardgrass ([5]; POSTEMERGENCE, Rate 50 g/ha) | Plant response rating, Nutsedge ([6]; POSTEMERGENCE, Rate 10 g/ha) | Plant response rating, Nutsedge ([6]; PREEMERGENCE, Rate 50 g/ha)
20: Plant response rating (0 to 100), Corn ([9]; Rate 1 g/ha)
30: Plant response rating (0 to 100), Wheat ([8]; Rate 1 g/ha) | Plant response rating (0 to 100), Corn ([9]; Rate 4 g/ha) | Plant response rating (0 to 100), Wild oat ([11]; Rate 1 g/ha)
100: Plant response rating, Wild buckwheat ([7]; 62 g/ha, 0 to 100 scale) | Plant response rating (0 to 100), Wild buckwheat ([7]; Rate 1 g/ha) | Plant response rating (0 to 100), Wild buckwheat ([7]; Rate 4 g/ha) | Plant response rating (0 to 100), Wild buckwheat ([7]; Rate 16 g/ha) | Plant response rating, Morningglory ([10]; 62 g/ha, 0 to 100 scale) | Plant response rating (0 to 100), Morningglory ([10]; Rate 4 g/ha) | Plant response rating (0 to 100), Morningglory ([10]; Rate 16 g/ha)
7: Plant response rating, Blackgrass ([1]; POSTEMERGENCE, Rate 50 g/ha) | Plant response rating, Nutsedge ([6]; POSTEMERGENCE, Rate 50 g/ha)
10: Plant response rating, Rape ([3]; POSTEMERGENCE, Rate 10 g/ha) | Plant response rating, Rape ([3]; POSTEMERGENCE, Rate 50 g/ha)
3: Plant response rating, Blackgrass ([1]; PREEMERGENCE, Rate 10 g/ha) | Plant response rating, Crabgrass ([2]; PREEMERGENCE, Rate 50 g/ha) | Plant response rating, Rape ([3]; PREEMERGENCE, Rate 50 g/ha) | Plant response rating, Barnyardgrass ([5]; POSTEMERGENCE, Rate 10 g/ha)
40: Plant response rating (0 to 100), Corn ([9]; Rate 16 g/ha) | Plant response rating (0 to 100), Wild oat ([11]; Rate 4 g/ha)

From patent US6358885B1, “Substituted phenylheterocyclic herbicides” (Mississippi State University, priority 1992, dated 2002)
